Reference: patent publication US8709719B2, “ZNF217 a new prognostic and predictive biomarker of recurrent invasive and metastatic phenotypes in breast cancer” (Centre Leon Berard, priority 2009, dated 2014)

Key:
MVLN cells = experiment: Cell proliferation assay (BrdU) in MVLN cells; type: cell-based; details: 200 nM OH-Tam
Description: (§1) FIG. 13: Endocrine resistance is reversed in the presence of an siRNA-ZNF217 in OH-Tam-resistant CL6.7 cells. Total protein extracts from cell lines were analyzed by Western blotting with an anti-ZNF217. Expression of α-tubulin was used as an invariant control. (A) Western-blot analysis of ZNF217 in transfected MVLN and CL6.7 cells with either scrambled RNA or with an siRNA-ZNF217. (B) Cell proliferation (BrdU test) of transfected MVLN and CL6.7 cells with either scrambled RNA or siRNA-ZNF217, in the presence or the absence of 200 nM OH-Tam. This assay was performed in steroid-free medium. P-value (Student's t-test) was considered as significant when P<0.05.
(§2) MCF7 and MDA-MB-231 breast cancer cells were purchased from ATCC and grown according to recommendations in DMEM medium supplemented with 10% fetal bovine serum (Invitrogen, Cergy Pontoise, Paris). S30 cells and their MDA-MB-231 control cells have been previously described (Levenson et al., 2003). The cellular model of endocrine resistance (MVLN and CL6.7 cells) have been previously established and described (Demirpence et al., 1993).
(§3) Proliferating cells were analyzed using the Cell Proliferation ELISA, BrdU (colorimetric) Kit (Roche, Meylan, France). […]

CL6.7 cells = experiment: Cell proliferation assay (BrdU) in OH-Tam-resistant CL6.7 cells; type: cell-based; details: 200 nM OH-Tam
Description: as §1, §2, §3

CC/C(=C(\c1ccc(O)cc1)c1ccc(OCCN(C)C)cc1)c1ccccc1 [OH-Tam, OH-Tamoxifen]
effect of OH-Tam exposure on cell proliferation (MVLN cells; MVLN cells (OH-Tam-sensitive), steroid-free medium): cytostatic activity
sensitivity to endocrine therapy (cell proliferation) (MVLN cells; MVLN cells, OH-Tam exposure combined with ZNF217 knockdown (siRNA), P=0.001): increased sensitivity to endocrine therapy
effect of OH-Tam exposure on cell proliferation (CL6.7 cells; CL6.7 cells (OH-Tam-resistant), steroid-free medium): strong stimulation of CL6.7 cell proliferation
inhibition of cell proliferation (CL6.7 cells; CL6.7 cells, OH-Tam exposure combined with ZNF217 knocking-out (siRNA), P<10^-5): 35%
